For series [1], the system named is HL-60. In words: Compound was tested in vitro for its biological evaluation against HL-60 cell line. In kind it is functional, Homo sapiens.
Series [2] relates to Keratinocyte. Description: Compound was tested in vitro for its biological evaluation against keratinocytes cell line. In kind it is functional.
Series [3] relates to MCF7. Description: Compound was tested in vitro for its biological evaluation against MCF-7 cell line. The format is functional, Homo sapiens.
Series [4] concerns MG-63. Description: Compound was tested in vitro for its biological evaluation against MG-63 cell line. The format is functional, Homo sapiens.
Series [5] concerns Mus musculus. Description: In vivo effect in vitamin D-replete normal NMRI mice by measuring calcium levels in serum. The format is functional.
Series [6] has as its target T1, Vitamin D3 receptor (Sus scrofa domesticus) (UniProt Q7M3G7).
T1 sequence (whole entry): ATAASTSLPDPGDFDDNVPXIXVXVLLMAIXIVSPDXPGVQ
In words: Compound was tested for its relative affinity to pig intestinal mucosa Vitamin D3 receptor using [3H]- 1 alpha,25(OH)2 D3 radioligand compared to 1 alpha 25-(OH)2D3. In kind it is tissue-based.

Series [7] can be described thus: Ratio of biological evaluation of compound in keratinocytes and calcium sreum was determined. value expressed as relative toxicity. In kind it is cell-based.
Series [8] in a line: Ratio of biological evaluation of compound in keratinocytes and calcium serum was determined. value expressed as relative toxicity. The format is cell-based.

The structures appear in SMILES notation. A value given as a limit tells only on which side of the number the result lay.

As for `C=C1/C(=C\C=C2/CCC[C@]3(C)C([C@H](C)CC#CC(C)(C)O)=CC[C@@H]23)C[C@@H](O)C[C@@H]1O` [ILX23-7553], the Activity in series [1] is 1000; in series [2] it was 8000; in series [3], 4250; in series [4], 1000; in series [5], 10. The same compound came in with a Relative affinity in series [6] of 70. In addition, the Ratio in series [7] stood at 1300.

Take `C=C1C(=CC=CC2CCCC([C@H](C)CC#CC(C)(C)O)C2(C)C)C[C@@H](O)C[C@@H]1O` (stereo not given in full): the Activity in series [1] is 85; in series [2], 200; in series [3], 100; in series [5] it was under 0.1. In series [6], this compound registered a Relative affinity of 60. Besides, the Ratio in series [8] is 2000.

Regarding `C=C1C(=CC=CC2CCCC([C@@H](C)CC#CC(C)(C)O)C2(C)C)C[C@@H](O)C[C@@H]1O` (stereo not given in full), the Activity came out at 10 in series [1]; 7 in series [2]; 4 in series [3]; 20 in series [4]; 0.25 in series [5]. This compound had a Relative affinity in series [6] of 0.7. The Ratio in series [7] amounted to 28.
